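Five concentrations, 48 hours, 96-well plates. GI50 = concentration required for 50% inhibition of growth. Definition used: TGI = concentration required for complete inhibition of growth.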
Legend:
Experiment in all cases: inhibition of tumour cell growth, NCI panel, 48 h
[1] = test system: A549 NSCLC
[2] = test system: M14 melanoma
[3] = test system: EKVX NSCLC
[4] = test system: ACHN renal
[5] = test system: DU-145 prostate
[6] = test system: TK-10 renal
[7] = test system: SK-MEL-5 melanoma
[8] = test system: NCI-H226 lung
[9] = test system: T-47D breast
[10] = test system: SF-295 CNS
[11] = test system: SNB-19 CNS
[12] = test system: OVCAR-4 ovarian
[13] = test system: U251 CNS
[14] = test system: SF-539 CNS
[15] = test system: HCT-15 colon
[16] = test system: MALME-3M melanoma
[17] = test system: SNB-75 CNS
[18] = test system: MCF7 breast
[19] = test system: LOX IMVI melanoma
[20] = test system: UACC-62 melanoma
[21] = test system: COLO 205 colon
[22] = test system: SW-620 colon
[23] = test system: HCT-116 colon
[24] = test system: UO-31 renal
[25] = test system: UACC-257 melanoma
[26] = test system: RXF 393 renal
[27] = test system: A498 renal
[28] = test system: HOP-92 NSCLC
[29] = test system: PC-3 prostate
[30] = test system: NCI-H23 lung
[31] = test system: K-562 leukemia
[32] = test system: SK-MEL-28 melanoma
[33] = test system: MDA-MB-435
[34] = test system: HCC-2998 colon
[35] = test system: BT-549 breast
[36] = test system: KM12 colon
[37] = test system: RPMI-8226 leukemia
[38] = test system: OVCAR-8 ovarian
[39] = test system: HS 578T breast
[40] = test system: HL-60(TB) leukemia
[41] = test system: SK-MEL-2 melanoma
[42] = test system: NCI-H460 lung
[43] = test system: HT29 colon
[44] = test system: 786-0 renal
[45] = test system: NCI-H522 lung
[46] = test system: SF-268 CNS
[47] = test system: SK-OV-3 ovarian
[48] = test system: SR leukemia
[49] = test system: HOP-62 NSCLC
[50] = test system: MOLT-4 leukemia
[51] = test system: CCRF-CEM leukemia
[52] = test system: MDA-MB-231 breast
[53] = test system: CAKI-1 renal
[54] = test system: OVCAR-5 ovarian
[55] = test system: IGROV1 ovarian
[56] = test system: NCI/ADR-RES ovarian
[57] = test system: SN12C renal

O=C(CCCCCCN1CC(=O)N2[C@@H](c3cccc(Br)c3)c3[nH]c4ccccc4c3C[C@H]2C1=O)NO
GI50 [1]: 4830 nM
TGI [1]: > 16700 nM
GI50 [2]: 2810 nM
TGI [2]: 14300 nM
GI50 [3]: 4330 nM
TGI [3]: > 16700 nM
GI50 [4]: 3850 nM
TGI [4]: 14900 nM
GI50 [5]: 3130 nM
TGI [5]: 12300 nM
GI50 [6]: 2980 nM
TGI [6]: 15100 nM
GI50 [7]: 2600 nM
TGI [7]: 9060 nM
GI50 [8]: 5010 nM
TGI [8]: > 16700 nM
GI50 [9]: 1650 nM
TGI [9]: 12800 nM
GI50 [10]: 2570 nM
TGI [10]: 6580 nM
GI50 [11]: 3790 nM
TGI [11]: > 16700 nM
GI50 [12]: 3170 nM
TGI [12]: > 16700 nM
GI50 [13]: 2780 nM
TGI [13]: 10700 nM
GI50 [14]: 2890 nM
TGI [14]: 10500 nM
GI50 [15]: 13000 nM
TGI [15]: > 16700 nM
GI50 [16]: 922 nM
TGI [16]: 7450 nM
GI50 [17]: 707 nM
TGI [17]: 9150 nM
GI50 [18]: 1880 nM
TGI [18]: 7190 nM
GI50 [19]: 203 nM
TGI [19]: 431 nM
GI50 [20]: 1780 nM
TGI [20]: 5380 nM
GI50 [21]: 2280 nM
TGI [21]: 8360 nM
GI50 [22]: 2240 nM
TGI [22]: 14700 nM
GI50 [23]: 1050 nM
TGI [23]: 6460 nM
GI50 [24]: 3300 nM
TGI [24]: > 16700 nM
GI50 [25]: 2370 nM
TGI [25]: > 16700 nM
GI50 [26]: 1510 nM
TGI [26]: 5210 nM
GI50 [27]: 2750 nM
TGI [27]: 6310 nM
GI50 [28]: 1840 nM
TGI [28]: 5780 nM
GI50 [29]: 2230 nM
TGI [29]: > 16700 nM
GI50 [30]: 3080 nM
TGI [30]: 9780 nM
GI50 [31]: 1370 nM
TGI [31]: > 16700 nM
GI50 [32]: 2510 nM
TGI [32]: 10500 nM
GI50 [33]: 2270 nM
TGI [33]: 7290 nM
GI50 [34]: 2660 nM
TGI [34]: 5810 nM
GI50 [35]: 3810 nM
TGI [35]: 16100 nM
GI50 [36]: 2950 nM
TGI [36]: 6650 nM
GI50 [37]: 982 nM
TGI [37]: 11600 nM
GI50 [38]: 2320 nM
TGI [38]: > 16700 nM
GI50 [39]: 2250 nM
TGI [39]: 12100 nM
GI50 [40]: 1200 nM
TGI [40]: 6290 nM
GI50 [41]: 2770 nM
TGI [41]: 12700 nM
GI50 [42]: 2430 nM
TGI [42]: 11500 nM
GI50 [43]: 2230 nM
TGI [43]: > 16700 nM
GI50 [44]: 3860 nM
TGI [44]: 11100 nM
GI50 [45]: 800 nM
TGI [45]: 5770 nM
GI50 [46]: 3440 nM
TGI [46]: 9800 nM
GI50 [47]: 3230 nM
TGI [47]: 9270 nM
GI50 [48]: 554 nM
TGI [48]: 8710 nM
GI50 [49]: 2510 nM
TGI [49]: 7590 nM
GI50 [50]: 933 nM
TGI [50]: 10400 nM
GI50 [51]: 709 nM
TGI [51]: > 16700 nM
GI50 [52]: 3250 nM
TGI [52]: 11500 nM
GI50 [53]: 2600 nM
TGI [53]: 15000 nM
GI50 [54]: 3370 nM
TGI [54]: > 16700 nM
GI50 [55]: 403 nM
TGI [55]: 1110 nM
GI50 [56]: > 16700 nM
TGI [56]: > 16700 nM
GI50 [57]: 3900 nM
TGI [57]: > 16700 nM

Nc1ccc(-c2nnc(SCc3ccc(O)c4ncccc34)o2)cc1
GI50 [1]: 41.7 nM
TGI [1]: > 100000 nM
GI50 [2]: 60.4 nM
TGI [2]: 2810 nM
GI50 [4]: 72.6 nM
TGI [4]: > 31900 nM
GI50 [5]: 55 nM
TGI [5]: > 38500 nM
GI50 [6]: 132 nM
GI50 [7]: 49.1 nM
GI50 [8]: 441 nM
TGI [8]: > 100000 nM
GI50 [9]: 85 nM
TGI [9]: > 100000 nM
GI50 [10]: 41.2 nM
TGI [10]: > 39000 nM
GI50 [11]: 43.8 nM
TGI [11]: > 51800 nM
GI50 [12]: 259 nM
TGI [12]: > 100000 nM
GI50 [13]: 35.4 nM
TGI [13]: 11800 nM
GI50 [14]: 64.2 nM
TGI [14]: 8750 nM
GI50 [15]: 38.2 nM
TGI [15]: > 100000 nM
GI50 [16]: 92.7 nM
TGI [16]: 31900 nM
GI50 [17]: 112 nM
TGI [17]: 12900 nM
GI50 [18]: 38.7 nM
TGI [18]: > 100000 nM
GI50 [19]: 30.5 nM
TGI [19]: > 33700 nM
GI50 [20]: 249 nM
TGI [20]: 2280 nM
GI50 [21]: 442 nM
TGI [21]: 2450 nM
GI50 [22]: 61.8 nM
TGI [22]: > 100000 nM
GI50 [23]: 37.9 nM
TGI [23]: 28800 nM
GI50 [24]: 61.9 nM
TGI [24]: 1910 nM
GI50 [25]: 207 nM
TGI [25]: 910 nM
GI50 [26]: 90.6 nM
TGI [26]: > 85900 nM
GI50 [27]: 317 nM
TGI [27]: 3300 nM
GI50 [28]: 23.8 nM
TGI [28]: 72.4 nM
GI50 [29]: 50.2 nM
TGI [29]: > 100000 nM
GI50 [30]: 49.2 nM
TGI [30]: > 26900 nM
GI50 [31]: 44.2 nM
TGI [31]: > 100000 nM
GI50 [32]: 139 nM
TGI [32]: > 100000 nM
GI50 [33]: 45.4 nM
TGI [33]: > 100000 nM
GI50 [34]: 177 nM
TGI [34]: > 100000 nM
GI50 [35]: 55.8 nM
TGI [35]: > 100000 nM
GI50 [36]: 128 nM
TGI [36]: > 100000 nM
GI50 [37]: 46.1 nM
TGI [37]: > 100000 nM
GI50 [38]: 41.8 nM
TGI [38]: > 100000 nM
GI50 [39]: 50.9 nM
TGI [39]: > 100000 nM
GI50 [40]: 98.7 nM
TGI [40]: 1220 nM
GI50 [41]: 79.2 nM
TGI [41]: 2730 nM
GI50 [42]: 36.7 nM
GI50 [43]: 485 nM
TGI [43]: > 100000 nM
GI50 [44]: 224 nM
TGI [44]: 16700 nM
GI50 [45]: 44 nM
TGI [45]: > 50700 nM
GI50 [46]: 64.1 nM
TGI [46]: > 75300 nM
GI50 [47]: 80.7 nM
TGI [47]: 577 nM
GI50 [48]: 89.1 nM
TGI [48]: > 100000 nM
GI50 [49]: 81.5 nM
TGI [49]: 7620 nM
GI50 [50]: 124 nM
TGI [50]: > 100000 nM
GI50 [51]: 61.7 nM
TGI [51]: > 100000 nM
GI50 [52]: 154 nM
TGI [52]: 22600 nM
GI50 [53]: 179 nM
TGI [53]: > 68100 nM
GI50 [54]: 498 nM
TGI [54]: > 100000 nM
GI50 [55]: 84.6 nM
TGI [55]: > 41900 nM
GI50 [56]: 43.9 nM
TGI [56]: > 100000 nM
GI50 [57]: 39.2 nM
TGI [57]: > 100000 nM

Source: PubChem BioAssay (NCI)
